Data from patent publication US9376418B2, “Substituted pyridine spleen tyrosine kinase (SYK) inhibitors” (Merck Sharp & Dohme Corp., priority 2012, dated 2016).

What follows are molecules tested against T1, recombinant human GST-SYK (Homo sapiens, UniProt P43405) (assay: Homogeneous Time-Resolved Fluorescence (HTRF) assay for the recombinant human Syk enzyme). Conditions: HTRF assay, recombinant human GST-SYK; IC50 given as class symbols; read-out: rhSYK Activity.
T1 construct: purchased Carna Biosciences 08-176
Format: biochemical
Summary of the method: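 HTRF read-out: Europium-anti-phosphotyrosine antibody (2 nM) plus SA-APC (70 nM) in EDTA-containing buffer quenched the reaction, and signal was read after 30 minutes. Kinase step used […], 250 nM biotinylated peptide, 25 μM ATP, 5 mM Mg, 45′ at room temperature.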
Cc1cc(Nc2nccc(C(F)(F)F)n2)cc(-c2ccc(N[C@H](C(=O)O)[C@@H](C)O)nc2)c1 [Example 7.92, N-[5-(3-methyl-5-{[4-(trifluoromethyl)pyrimidin-2-yl]amino}phenyl)pyridin-2-yl]-L-threonine] showed an IC50 of under 0.1 µM. With Cc1cc(Nc2nccc(C(F)(F)F)n2)cc(-c2ccc(N[C@H](CC(N)=O)C(=O)O)nc2)c1 [Example 7.93, N~2~-[5-(3-methyl-5-{[4-(trifluoromethyl)pyrimidin-2-yl]amino}phenyl)pyridin-2-yl]-D-asparagine] the IC50 was under 0.1 µM. Cc1cc(Nc2nccc(C(F)(F)F)n2)cc(-c2ccc(N[C@@H](CC(N)=O)C(=O)O)nc2)c1 [Example 7.94, N~2~-[5-(3-methyl-5-{[4-(trifluoromethyl)pyrimidin-2-yl]amino}phenyl)pyridin-2-yl]-L-asparagine] was tested, and the IC50 was under 0.1 µM. In the case of CSCC[C@H](Nc1ccc(-c2cc(C)cc(Nc3nccc(C(F)(F)F)n3)c2)cn1)C(=O)O [Example 7.95, N-[5-(3-methyl-5-{[4-(trifluoromethyl)pyrimidin-2-yl]amino}phenyl)pyridin-2-yl]-L-methionine], the IC50 is reported as under 0.1 µM. Cc1cc(Nc2nccc(C(F)(F)F)n2)cc(-c2ccc(N[C@H](Cc3ccccc3)C(=O)O)nc2)c1 [Example 7.96, N-[5-(3-methyl-5-{[4-(trifluoromethyl)pyrimidin-2-yl]amino}phenyl)pyridin-2-yl]-D-phenylalanine] was tested, and the IC50 was under 0.1 µM. In the case of Cc1cc(Nc2nccc(C(F)(F)F)n2)cc(-c2ccc(N[C@@H](Cc3ccccc3)C(=O)O)nc2)c1 [Example 7.97, N-[5-(3-methyl-5-{[4-(trifluoromethyl)pyrimidin-2-yl]amino}phenyl)pyridin-2-yl]-L-phenylalanine], the IC50 is reported as under 0.1 µM. In the case of Cc1cc(Nc2nccc(C(F)(F)F)n2)cc(-c2ccc(N[C@@H](Cc3ccc(O)cc3)C(=O)O)nc2)c1 [Example 7.98, N-[5-(3-methyl-5-{[4-(trifluoromethyl)pyrimidin-2-yl]amino}phenyl)pyridin-2-yl]-L-tyrosine], the IC50 is reported as under 0.1 µM. Molecule Cc1cc(Nc2nccc(C(F)(F)F)n2)cc(-c2ccc(N[C@H](Cc3c[nH]c4ccccc34)C(=O)O)nc2)c1 [Example 7.99, N-[5-(3-methyl-5-{[4-(trifluoromethyl)pyrimidin-2-yl]amino}phenyl)pyridin-2-yl]-D-tryptophan] has an IC50 of under 0.1 µM. With Cc1cc(Nc2nccc(C(F)(F)F)n2)cc(-c2ccc(N[C@@H](Cc3c[nH]c4ccccc34)C(=O)O)nc2)c1 [Example 7.100, N-[5-(3-methyl-5-{[4-(trifluoromethyl)pyrimidin-2-yl]amino}phenyl)pyridin-2-yl]-L-tryptophan] the IC50 was under 0.1 µM. CC[C@@H](C)[C@@H](Nc1ccc(-c2cc(C)cc(Nc3nccc(C(F)(F)F)n3)c2)cn1)C(=O)O [Example 7.101, N-[5-(3-methyl-5-{[4-(trifluoromethyl)pyrimidin-2-yl]amino}phenyl)pyridin-2-yl]-D-isoleucine] gave an IC50 of under 0.1 µM. Cc1cc(Nc2nccc(C(F)(F)F)n2)cc(-c2ccc(NCCCC(=O)O)nc2)c1 [Example 7.102, 4-{[5-(3-methyl-5-{[4-(trifluoromethyl)pyrimidin-2-yl]amino}phenyl)pyridin-2-yl]amino}butanoic acid] gave an IC50 of under 0.1 µM. CC[C@H](Nc1ccc(-c2cc(C)cc(Nc3nccc(C(F)(F)F)n3)c2)cn1)C(=O)O [Example 7.103, (2S)-2-{[5-(3-methyl-5-{[4-(trifluoromethyl)pyrimidin-2-yl]amino}phenyl)pyridin-2-yl]amino}butanoic acid] gave an IC50 of under 0.1 µM. With Cc1cc(Nc2nccc(C(F)(F)F)n2)cc(-c2ccc(N(C)[C@@H](C)C(=O)O)nc2)c1 [Example 7.104, N-methyl-N-[5-(3-methyl-5-{[4-(trifluoromethyl)pyrimidin-2-yl]amino}phenyl)pyridin-2-yl]-L-alanine] the IC50 was under 0.1 µM. Cc1cc(Nc2nccc(C(F)(F)F)n2)cc(-c2ccc(N3C[C@H](O)C[C@H]3C(=O)O)nc2)c1 [Example 7.105, (4R)-4-hydroxy-1-[5-(3-methyl-5-{[4-(trifluoromethyl)pyrimidin-2-yl]amino}phenyl)pyridin-2-yl]-L-proline] showed an IC50 of under 0.1 µM. Cc1cc(Nc2nccc(C(F)(F)F)n2)cc(-c2ccc(N[C@H](C(=O)O)C(C)(C)C)nc2)c1 [Example 7.106, 3-methyl-N-[5-(3-methyl-5-{[4-(trifluoromethyl)pyrimidin-2-yl]amino}phenyl)pyridin-2-yl]-L-valine] was tested, and the IC50 was under 0.1 µM. CCC[C@@H](Nc1ccc(-c2cc(C)cc(Nc3nccc(C(F)(F)F)n3)c2)cn1)C(=O)O [Example 7.107, N-[5-(3-methyl-5-{[4-(trifluoromethyl)pyrimidin-2-yl]amino}phenyl)pyridin-2-yl]-D-norvaline] gave an IC50 of under 0.1 µM. Cc1cc(Nc2nccc(C(F)(F)F)n2)cc(-c2ccc(N[C@H](CO)C(=O)O)nc2)c1 [Example 7.108, N-[5-(3-methyl-5-{[4-(trifluoromethyl)pyrimidin-2-yl]amino}phenyl)pyridin-2-yl]-D-serine] was tested, and the IC50 was under 0.1 µM. Work on Cc1cc(Nc2nccc(C(F)(F)F)n2)cc(-c2ccc(N[C@@H](CO)C(=O)O)nc2)c1 [Example 7.109, N-[5-(3-methyl-5-{[4-(trifluoromethyl)pyrimidin-2-yl]amino}phenyl)pyridin-2-yl]-L-serine] yielded an IC50 of under 0.1 µM. Molecule Cc1cc(Nc2nccc(C(F)(F)F)n2)cc(-c2ccc(N3CCC[C@@H]3C(=O)O)nc2)c1 [Example 7.110, 1-[5-(3-methyl-5-{[4-(trifluoromethyl)pyrimidin-2-yl]amino}phenyl)pyridin-2-yl]-D-prolilne] has an IC50 of under 0.1 µM. For Cc1cc(Nc2nccc(C(F)(F)F)n2)cc(-c2ccc(N[C@@H](CC(C)C)C(=O)O)nc2)c1 [Example 7.111, N-[5-(3-methyl-5-{[4-(trifluoromethyl)pyrimidin-2-yl]amino}phenyl)pyridin-2-yl]-L-leucine], the IC50 was under 0.1 µM. Cc1cc(Nc2nccc(C(F)(F)F)n2)cc(-c2ccc(N[C@@H](Cc3c[nH]cn3)C(=O)O)nc2)c1 [Example 7.112, N-[5-(3-methyl-5-{[4-(trifluoromethyl)pyrimidin-2-yl]amino}phenyl)pyridin-2-yl]-L-histidine] gave an IC50 of under 0.1 µM. Cc1cc(Nc2nccc(C(F)(F)F)n2)cc(-c2ccc(NCCCO)nc2)c1 [Example 7.113, 3-{[5-(3-methyl-5-{[4-(trifluoromethyl)pyrimidin-2-yl]amino}phenyl)pyridin-2-yl]amino}propan-1-ol] showed an IC50 of under 0.1 µM. Cc1cc(Nc2nccc(C(F)(F)F)n2)cc(-c2ccc(NC(C)(C)C#N)nc2)c1 [Example 7.114, 2-methyl-2-{[5-(3-methyl-5-{[4-(trifluoromethyl)pyrimidin-2-yl]amino}phenyl)pyridin-2-yl]amino}propanenitrile] was tested, and the IC50 was under 0.1 µM. Cc1cc(Nc2nccc(C(F)(F)F)n2)cc(-c2ccc(NC(C)(C#N)C(C)(C)C)nc2)c1 (stereo not shown) [Example 7.115, 2,3,3-trimethyl-2-{[5-(3-methyl-5-{[4-(trifluoromethyl)pyrimidin-2-yl]amino}phenyl)pyridin-2-yl]amino}butanenitrile] showed an IC50 of 0.1 to 1 µM. For Cc1cc(Nc2nccc(C(F)(F)F)n2)cc(-c2ccc(N3CCCC4(CCCCO4)C3)nc2)c1 (stereo not shown) [Example 7.116, N-{3-methyl-5-[6-(1-oxa-8-azaspiro[5.5]undec-8-yl)pyridin-3-yl]phenyl}-4-(trifluoromethyl)pyrimidin-2-amine], the IC50 was 0.1 to 1 µM.
